Data as given in patent US8569229B2, “Compositions and methods which modulate G-protein signaling for the treatment of inflammatory disorders such as asthma and allergic conjunctivitis” (The Children's Hospital of Philadelphia, priority 2008, dated 2013).
“And” between values parts separate entries of the source, which are not always exact repeats. Equal entries are not always repeated. “Also recorded” adds a separate entry of the source. Where two headings read alike, the source gives them in different places.

Key:
rabbit ASM tissues [1] = experiment: Constrictor responsiveness to acetylcholine (ACh) in isolated rabbit ASM tissues, isometric tension in organ bath
Excerpt: (§1) Detection of PDE4D5 mRNA transcripts: Total RNA was extracted from the cultured ASM cells using the TRIzol method (Invitrogen), and cDNAs were isolated by RT-PCR using the SuperScript First Strand Synthesis System kit from Invitrogen, with the following oligonucleotide primer sets (Integrated DNA Technologies): for PDE4D5, 5′-[…]-3′ (forward; SEQ ID NO: 2) and 5′-[…]-3′ (reverse; SEQ ID NO: 3); and for β-actin, 5′-[…]-3′ (forward; SEQ ID NO: 4) and 5′-[…]-3′ (reverse; SEQ ID NO: 5). The reaction volume was 20 μl and cycling conditions used were 35 cycles of 30 sec denaturation at 95° C., followed by 30 sec annealing at 60° C. and elongation at 72° C. for 30 sec. Ex-Tag (Takara Biotechnology) was used as DNA polymerase. […] Following protein extraction and the addition of gel-loading buffer, the extracts were loaded on a 10% SDS-PAGE gel for immunoblotting after transfer to a PVDF membrane. The membranes were then incubated overnight with monoclonal mouse anti-human primary antibodies directed against phospho-CREB and -ATF1, phospho-ERK1/2, or α-actin, and levels were detected by ECL after a 1-hr incubation with a 1:2,000 dilution of HRP-conjugated rabbit anti-mouse secondary antibody, followed by exposure to autoradiography film. The protein band intensities were quantified by densitometry. siRNA-mediated knockdown of PKA: ASM cells were seeded into 6-well plates and, at ˜40% confluency, the medium was replaced with the reduced serum-containing medium, Opti-MEM (Invitrogen). The cells were then transfected twice during a 24-hr interval with two pools of three siRNA duplexes, each pool targeted against the human PKAα or PKAγ catalytic subunits (Santa Cruz Biotechnology; sc-36240 and sc-36236, respectively), or with a non-targeted control (scrambled) siRNA duplex, using Oligofectamine (Invitrogen) as the transfection agent. The pools of siRNAs were applied to each well at a final concentration of 100 nM for each siRNA preparation. […] Transfection of ASM cells with adeno-βARK-ct: Adenovirus (adeno)-βARK-ct, an adenovirus vector encoding the βARK1 carboxyl-terminal domain which blocks Gβγ signaling (25,26), and adeno-β-gal, an adenovirus vector expressing lacZ as a negative control, were constructed using the AdenoX adenovirus construction kit (BD-Clontech). Recombinant plaques were isolated and propagated in HEK293 cells (Invitrogen), with viral purification using the cesium chloride gradient method, and viral titer detected by plaque assay. The ASM cells were transfected with either of the adenoviral vectors at a multiplicity of infection (MOI) of 100, and experiments were conducted at 24 hr following adenoviral tranfections. Pharmacodynamic studies of constrictor and relaxation responsiveness in rabbit ASM tissues: Following initial sedation and subsequent general anesthesia with intramuscular injections of xylazine (10 mg/kg) and ketamine (50 mg/kg), respectively, rabbits were sacrificed with an intravenously administered overdose of sodium pentobarbital (100 mg/kg). As described previously (16), the tracheae were excised via open thoracotomy, the loose connective tissue and epithelium were scraped and removed, and the tracheae were divided into 8 ring segments, each of 6-8 mm in length. […] After these incubations, the tissues were placed in organ baths containing modified Krebs-Ringer solution aerated with 5% CO2 in oxygen (pH of 7.35-7.40), and attached to force transducers to continuously monitor isometric tension. […] The constrictor and relaxation dose-response curves were analyzed with respect to each tissue's maximal isometric contractile force (Tmax) to ACh and maximal relaxation response (Rmax) to isoproterenol from the initial level of active cholinergic contraction. Statistical analyses: Results are expressed as mean±SE values. Comparisons between groups were made using the Student's t-test (two-tailed) or ANOVA with Tukey's post-test analysis, where appropriate.

rabbit ASM tissues [2] = experiment: Relaxation responsiveness to isoproterenol in isolated rabbit ASM tissues half-maximally contracted with ACh
Excerpt: as §1

human ASM cells [3] = experiment: Assay of cAMP PDE activity in ASM cell lysates; assay type: cell-based
Protocol: Assay of cAMP PDE activity: Levels of cAMP PDE activity were assayed in ASM cell lysates using a colorimetric, non-radioactive enzymatic assay kit from Biomol, as per the manufacture's protocol. PDE activity was determined following exposure of ASM cells for 24 hr to either vehicle alone (control), PGE2 (100 μM), or forskolin (100 μM) in the absence and presence of pretreatment with rolipram (10 μM), cycloheximide (100 μM), actinomycin D (4 μM), or H89 (10 μM).
In each case, the measured levels of PDE activity were standardized to the protein content in the cell extracts.

PDE4D5 mRNA = experiment: Detection of PDE4D5 mRNA transcripts by RT-PCR in ASM cells; assay type: cell-based, human
Excerpt: as §1

CREB/ATF1 = experiment: Immunoblot analysis of CREB/ATF1 phosphorylation in ASM cells; assay type: cell-based, human
Excerpt: as §1

ERK1/2 = experiment: Immunoblot analysis of ERK1/2 phosphorylation in ASM cells; assay type: cell-based, human
Excerpt: as §1

human ASM cells [4] = experiment: Assay of cAMP PDE activity in ASM cell lysates; assay type: cell-based; remark: listed apart in the source
[5] = vehicle-exposed control tissues
[6] = PGE2 or forskolin x 24 hr (100 μM in text, 100 nM in legends)
[7] = salmeterol or isoproterenol 10 μM x 24 hr
[8] = PGE2 100 nM, isoproterenol 10 μM

O=S(=O)(NCCNC/C=C/c1ccc(Br)cc1)c1cccc2cnccc12 [H89]
effect of pretreatment on PGE2-induced increase in constrictor responsiveness to ACh (rabbit ASM tissues [1]; PGE2 100 nM x 24 hr): abrogated | effect of pretreatment on salmeterol-induced increase in constrictor responsiveness to ACh (rabbit ASM tissues [1]; salmeterol 10 μM x 24 hr): completely abrogated; also recorded: prevents | effect of the agent alone on constrictor responses to ACh (rabbit ASM tissues [1]; [5]): no significant effect; also recorded: did not exhibit any significant changes | effect of pretreatment on PGE2-induced impaired relaxation to isoproterenol (rabbit ASM tissues [2]; PGE2 100 nM x 24 hr): abrogated | effect of pretreatment on salmeterol-induced impaired relaxation to isoproterenol (rabbit ASM tissues [2]; salmeterol 10 μM x 24 hr): completely ablated; also recorded: prevents | effect of the agent alone on relaxation responses to isoproterenol (rabbit ASM tissues [2]; [5]): no significant effect; also recorded: did not exhibit any significant changes | effect of the agent alone on basal PDE activity (human ASM cells [3]; no cAMP-elevating agent): no significant change; also recorded: neither H89 nor U0126 alone had a significant effect | effect of pretreatment on PGE2-induced upregulated PDE4D5 mRNA expression (PDE4D5 mRNA; PGE2 100 nM, 6 hr): largely prevented; also recorded: ablated | effect of pretreatment on β2AR agonist (isoproterenol)-induced upregulated PDE4D5 mRNA expression (PDE4D5 mRNA; isoproterenol 10 μM, 6 hr): largely prevented; also recorded: ablated | effect on PGE2-induced phosphorylation of CREB/ATF1 (CREB/ATF1; PGE2 100 nM, 30 min): abrogated; also recorded: ablated | effect on PGE2-induced phosphorylation of ERK1/2 (ERK1/2; PGE2 100 nM, 30 min): abrogated; also recorded: ablated | effect of pretreatment on PGE2- and forskolin-induced increases in PDE activity (human ASM cells [4]; [6]): abrogated; also recorded: ablated | effect of pretreatment on salmeterol- and isoproterenol-induced increase in PDE activity (human ASM cells [4]; [7]): prevented; also recorded: ablated

N#CC(=C(/N)Sc1ccccc1N)/C(C#N)=C(\N)Sc1ccccc1N [U0126]
effect of pretreatment on PGE2-induced increase in constrictor responsiveness to ACh (rabbit ASM tissues [1]): abrogated | effect of pretreatment on salmeterol-induced increase in constrictor responsiveness to ACh (rabbit ASM tissues [1]): completely abrogated; also recorded: prevents | effect of the agent alone on constrictor responses to ACh (rabbit ASM tissues [1]): no significant effect; also recorded: did not exhibit any significant changes | effect of pretreatment on PGE2-induced impaired relaxation to isoproterenol (rabbit ASM tissues [2]): abrogated | effect of pretreatment on salmeterol-induced impaired relaxation to isoproterenol (rabbit ASM tissues [2]): completely ablated; also recorded: prevents | effect of the agent alone on relaxation responses to isoproterenol (rabbit ASM tissues [2]): no significant effect; also recorded: did not exhibit any significant changes | effect of pretreatment on PGE2-induced upregulated PDE4D5 mRNA expression (PDE4D5 mRNA): largely prevented; also recorded: ablated | effect of pretreatment on β2AR agonist (isoproterenol)-induced upregulated PDE4D5 mRNA expression (PDE4D5 mRNA): largely prevented; also recorded: ablated | effect on PGE2-induced phosphorylation of CREB/ATF1 (CREB/ATF1): abrogated; also recorded: ablated | effect on PGE2-induced phosphorylation of ERK1/2 (ERK1/2): completely abrogated; also recorded: ablated | effect on isoproterenol (β2AR agonist)-induced phosphorylation of ERK1/2 (ERK1/2): ablated | effect of pretreatment on PGE2- and forskolin-induced increases in PDE activity (human ASM cells [4]): completely ablated | effect of pretreatment on salmeterol- and isoproterenol-induced increase in PDE activity (human ASM cells [4]): prevented; also recorded: ablated | effect of the agent alone on basal PDE activity (human ASM cells [4]): neither H89 nor U0126 alone had a significant effect

CC(C)NCC(O)c1ccc(O)c(O)c1 (centres unmarked) [isoproterenol]
cAMP PDE (PDE4) activity relative to vehicle-treated control cells (human ASM cells [3]; cells exposed 24 hr to the agent): significantly increased | PDE activity, fold above control (human ASM cells [3]; cells incubated 24 hr with the agent (PGE2 or forskolin 100 μM; salmeterol or isoproterenol 10 μM)): ~2 fold | time of peak PDE4D5 mRNA induction (PDE4D5 mRNA; PGE2 100 nM, salmeterol or isoproterenol 10 μM): 6 h | peak PDE4D5 mRNA expression, fold above unstimulated cells (PDE4D5 mRNA; densitometric analysis, 3 experiments, PGE2 100 nM, salmeterol or isoproterenol 10 μM): 5.7 fold | phosphorylation of CREB and ATF1 in cells treated with the agent (CREB/ATF1; [8]): transiently increased phosphorylation | time of peak CREB/ATF1 phosphorylation (CREB/ATF1; [8]): 30 min | time of peak ERK1/2 phosphorylation (ERK1/2; PGE2 100 nM, isoproterenol or salmeterol 10 μM): 20 min | ERK1/2 phosphorylation in cells treated with the agent (ERK1/2; PGE2 or forskolin 100 nM, isoproterenol or salmeterol 10 μM): increased phosphorylation of ERK1/2; also recorded: enhanced ERK1/2 phosphorylation | increase in ERK1/2 phosphorylation, fold above control (vehicle-treated) cells (ERK1/2; densitometric ratios, mean±SE, PGE2 30 min, isoproterenol 20 min): 2.30±0.18 fold and 2.3 fold

pertussis toxin [PTX]
effect of pretreatment on PGE2-induced increase in constrictor responsiveness to ACh (rabbit ASM tissues [1]; PGE2 100 nM x 24 hr): abrogated | effect of the agent alone on constrictor responses to ACh (rabbit ASM tissues [1]; [5]): no significant effect | effect of pretreatment on PGE2-induced impaired relaxation to isoproterenol (rabbit ASM tissues [2]; PGE2 100 nM x 24 hr): abrogated | effect of the agent alone on relaxation responses to isoproterenol (rabbit ASM tissues [2]; [5]): no significant effect | effect of pretreatment on PGE2-induced upregulated PDE4D5 mRNA expression (PDE4D5 mRNA; PGE2 100 nM, 6 hr): markedly inhibited; also recorded: ablated | effect of pretreatment on β2AR agonist (isoproterenol)-induced upregulated PDE4D5 mRNA expression (PDE4D5 mRNA; isoproterenol 10 μM, 6 hr): prevented; also recorded: ablated | effect on PGE2-induced phosphorylation of CREB/ATF1 (CREB/ATF1; PGE2 100 nM, 30 min): largely prevented; also recorded: ablated | effect on PGE2-induced phosphorylation of ERK1/2 (ERK1/2; PGE2 100 nM, 30 min): largely prevented; also recorded: ablated | effect of pretreatment on PGE2-induced increase in PDE activity (human ASM cells [4]; PGE2 100 nM x 24 hr, peptides 30 μM (Example III)): completely ablated | effect of pretreatment on PGE2- and forskolin-induced increases in PDE activity (human ASM cells [4]; [6]): completely ablated | effect of pretreatment on salmeterol- and isoproterenol-induced increase in PDE activity (human ASM cells [4]; [7]): completely abrogated; also recorded: ablated
